Converted amounts (≈) assume the structure as drawn.
What was measured:
Haemophilus influenzae [1] = test: […] activity against Haemophilus influenzae assessed as reduction in bacterial load at MIC by time-kill analysis; assay type: functional
Clostridioides difficile [2] = test: Antibacterial activity against Clostridium difficile infected in hamster model assessed as median survival time; assay type: functional
Haemophilus influenzae [3] = test: Antibacterial activity against Haemophilus influenzae by microdilution broth assay; assay type: functional
Klebsiella pneumoniae = test: Antibacterial activity against Klebsiella pneumoniae by microdilution broth assay; assay type: functional
[4] = target: Voltage-gated inwardly rectifying potassium channel KCNH2 (Homo sapiens, UniProt Q12809); test: Inhibition of human ERG
[5] = Induction of CYP1A1 mRNA level in human primary hepatocytes at 1 to 100 uM after 24 to 48 hrs relative to control; assay type: ADME, cell-based, Hepatocyte
Shigella sp. = test: Antibacterial activity against Shigella sp.; assay type: functional
Haemophilus influenzae [6] = test: Antibacterial activity against Haemophilus influenzae PBS981; assay type: functional
Streptococcus pneumoniae [7] = test: Antibacterial activity against Streptococcus pneumoniae PBS1399; assay type: functional
Salmonella sp. = test: Antibacterial activity against Salmonella sp.; assay type: functional
[8] = Induction of CYP2J2 mRNA level in human primary hepatocytes at 1 to 100 uM after 24 to 48 hrs relative to control; assay type: ADME, cell-based, Hepatocyte
Staphylococcus aureus [9] = test: Antibacterial activity against Staphylococcus aureus USA300; assay type: functional
[10] = Induction of CYP2E1 mRNA level in human primary hepatocytes at 1 to 100 uM after 24 to 48 hrs relative to control; assay type: ADME, cell-based, Hepatocyte
Moraxella catarrhalis = test: Antibacterial activity against Moraxella catarrhalis; assay type: functional
[11] = Metabolic stability in human hepatocytes at 48 uM up to 24 hrs; assay type: ADME, cell-based, Hepatocyte; settings: read-out: Stability
[12] = Induction of CYP2B6 mRNA level in human primary hepatocytes at 1 to 100 uM after 24 to 48 hrs relative to control; assay type: ADME, cell-based, Hepatocyte
Serratia marcescens = test: Antibacterial activity against Serratia marcescens; assay type: functional
Staphylococcus aureus [13] = test: Antibacterial activity against Staphylococcus aureus USA300 in mouse thigh wound infection model assessed as reduction in bacterial load administered intravenously as single dose after 2 hrs of infection measured after 24 hrs post treatment; assay type: functional; settings: USA300, iv
Enterobacter cloacae = test: Antibacterial activity against Enterobacter cloacae; assay type: functional
Staphylococcus aureus [14] = test: Antibacterial activity against Staphylococcus aureus USA400; assay type: functional
Escherichia coli [15] = test: Antibacterial activity against Escherichia coli by microdilution broth assay; assay type: functional
Haemophilus influenzae [16] = test: Antibacterial activity against Haemophilus influenzae PBS981 infected in CD-1 mouse assessed as reduction in bacterial load in lungs administered intravenously as single dose after 2 hrs of infection measured after 24 hrs post treatment; assay type: functional; settings: PBS981, iv
[17] = Induction of CYP2D6 mRNA level in human primary hepatocytes at 1 to 100 uM after 24 to 48 hrs relative to control; assay type: ADME, cell-based, Hepatocyte
[18] = Induction of CYP2C8 mRNA level in human primary hepatocytes at 1 to 100 uM after 24 to 48 hrs relative to control; assay type: ADME, cell-based, Hepatocyte
[19] = Metabolic stability in human microsomes at 4.8 uM after 30 mins; assay type: ADME, Microsome; settings: read-out: Stability
[20] = Induction of CYP1A2 mRNA level in human primary hepatocytes at 1 to 100 uM after 24 to 48 hrs relative to control; assay type: ADME, cell-based, Hepatocyte
Providencia sp. = test: Antibacterial activity against Providencia sp.; assay type: functional
[21] = Induction of CYP2A6 mRNA level in human primary hepatocytes at 1 to 100 uM after 24 to 48 hrs relative to control; assay type: ADME, cell-based, Hepatocyte
Proteus sp. = test: Antibacterial activity against Proteus sp.; assay type: functional; settings: Proteus sp. (in: enterobacteria)
Staphylococcus aureus [22] = test: Antibacterial activity against Staphylococcus aureus USA400 in mouse thigh wound infection model assessed as reduction in bacterial load administered intravenously as single dose after 2 hrs of infection measured after 24 hrs post treatment; assay type: functional; settings: USA400, iv
Clostridioides difficile [23] = test: Antibacterial activity against Clostridium difficile by broth microdilution assay; assay type: functional
[24] = Induction of CYP2C9 mRNA level in human primary hepatocytes at 1 to 100 uM after 24 to 48 hrs relative to control; assay type: ADME, cell-based, Hepatocyte
[25] = Induction of CYP1B1 mRNA level in human primary hepatocytes at 1 to 100 uM after 24 to 48 hrs relative to control; assay type: ADME, cell-based, Hepatocyte
Escherichia coli [26] = test: Antibacterial activity against Escherichia coli; assay type: functional
Clostridium perfringens = test: Antibacterial activity against Clostridium perfringens; assay type: functional
Bacteroides fragilis = test: Antibacterial activity against Bacteroides fragilis; assay type: functional
Haemophilus influenzae [27] = test: Antibacterial activity against Haemophilus influenzae; assay type: functional
[28] = Induction of CYP3A4/5 mRNA level in human primary hepatocytes at 1 to 100 uM after 24 to 48 hrs relative to control; assay type: ADME, cell-based, Hepatocyte
[29] = Induction of CYP2C19 mRNA level in human primary hepatocytes at 1 to 100 uM after 24 to 48 hrs relative to control; assay type: ADME, cell-based, Hepatocyte
Clostridioides difficile [30] = test: Antibacterial activity against Clostridium difficile by agar microdilution assay; assay type: functional
Klebsiella aerogenes = test: Antibacterial activity against Enterobacter aerogenes; assay type: functional
Pseudomonas aeruginosa = test: Antibacterial activity against Pseudomonas aeruginosa; assay type: functional
[31] = system: Stenotrophomonas maltophilia; test: Antibacterial activity against Stenotrophomonas maltophilia; assay type: functional
Streptococcus pneumoniae [32] = test: Antibacterial activity against Streptococcus pneumoniae PBS1399 infected in mouse assessed as protection against bacterial infection by measuring mouse survival administered intravenously as single dose after 2 hrs of infection measured on day 7; assay type: functional; settings: PBS1399, iv, read-out: PD50

Voltage-gated inwardly rectifying potassium channel KCNH2, sequence (Q12809 whole entry): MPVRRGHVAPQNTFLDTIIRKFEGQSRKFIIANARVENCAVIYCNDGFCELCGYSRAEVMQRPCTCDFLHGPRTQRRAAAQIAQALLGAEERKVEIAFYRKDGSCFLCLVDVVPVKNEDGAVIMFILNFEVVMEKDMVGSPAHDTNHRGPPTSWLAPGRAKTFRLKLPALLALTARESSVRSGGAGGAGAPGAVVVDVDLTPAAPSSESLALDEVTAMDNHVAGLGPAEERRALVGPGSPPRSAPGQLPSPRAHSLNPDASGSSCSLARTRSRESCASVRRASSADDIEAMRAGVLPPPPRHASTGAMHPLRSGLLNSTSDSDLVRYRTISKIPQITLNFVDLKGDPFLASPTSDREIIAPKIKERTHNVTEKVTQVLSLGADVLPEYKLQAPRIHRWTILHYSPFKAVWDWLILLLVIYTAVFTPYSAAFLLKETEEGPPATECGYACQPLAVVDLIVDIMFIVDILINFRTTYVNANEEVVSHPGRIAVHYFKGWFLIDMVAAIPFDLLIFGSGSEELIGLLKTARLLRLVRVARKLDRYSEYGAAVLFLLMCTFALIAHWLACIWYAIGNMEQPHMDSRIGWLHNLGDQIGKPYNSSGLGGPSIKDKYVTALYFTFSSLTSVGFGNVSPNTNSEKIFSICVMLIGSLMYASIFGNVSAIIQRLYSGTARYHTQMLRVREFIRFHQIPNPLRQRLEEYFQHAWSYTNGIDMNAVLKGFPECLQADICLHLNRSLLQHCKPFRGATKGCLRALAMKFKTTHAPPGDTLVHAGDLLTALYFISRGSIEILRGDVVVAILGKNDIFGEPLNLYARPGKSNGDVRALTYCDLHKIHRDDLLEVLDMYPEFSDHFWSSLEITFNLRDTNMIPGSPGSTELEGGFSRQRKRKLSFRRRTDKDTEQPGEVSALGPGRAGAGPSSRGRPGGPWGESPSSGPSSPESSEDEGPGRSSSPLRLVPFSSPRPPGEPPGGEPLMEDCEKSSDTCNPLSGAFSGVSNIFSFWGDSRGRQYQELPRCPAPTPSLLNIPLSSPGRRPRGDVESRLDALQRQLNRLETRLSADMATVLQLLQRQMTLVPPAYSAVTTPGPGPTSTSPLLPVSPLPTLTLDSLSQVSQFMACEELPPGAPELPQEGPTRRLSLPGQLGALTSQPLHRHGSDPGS

For `CN(C)c1cc(CNCC(C)(C)C)c(O)c2c1C[C@H]1C[C@H]3[C@H](N(C)C)C(O)=C(C(N)=O)C(=O)[C@@]3(O)C(O)=C1C2=O` [OMADACYCLINE], the Activity (Haemophilus influenzae [1]) was “>=3 log10CFU”, the MST (Clostridioides difficile [2]) was 12 days and the MIC90 (Haemophilus influenzae [3]) was 2 to 4 µg/mL (≈ 3.59 to 7.19 µM). The MIC90 (Klebsiella pneumoniae) was 2 to 4 µg/mL (≈ 3.59 to 7.19 µM), the IC25 [4] was 166 µg/mL (≈ 298 µM) and the Activity [5] was less than 40%. For the same molecule, the MIC90 (Shigella sp.) was less than 4 µg/mL, the MIC (Haemophilus influenzae [6]) was 1 µg/mL (≈ 1.8 µM) and the MIC (Streptococcus pneumoniae [7]) was 0.125 µg/mL (≈ 0.225 µM). For the same molecule, the MIC90 (Salmonella sp.) was less than 4 µg/mL, the Activity [8] was less than 40% and the MIC (Staphylococcus aureus [9]) was 0.25 µg/mL (≈ 0.449 µM). The Activity [10] was less than 40%, the MIC90 (Moraxella catarrhalis) was 0.25 µg/mL (≈ 0.449 µM) and the remaining at 24 h, 48 µM [11] was greater than 86%. For the same molecule, the Activity [12] was less than 40%, the MIC90 (Serratia marcescens) was less than 4 µg/mL and the ED50 (Staphylococcus aureus [13]) was 0.4 mg/kg. The MIC90 (Enterobacter cloacae) was less than 4 µg/mL, the MIC (Staphylococcus aureus [14]) was 0.5 µg/mL (≈ 0.898 µM) and the MIC90 (Escherichia coli [15]) was 2 to 4 µg/mL (≈ 3.59 to 7.19 µM). It also gave an ED50 (Haemophilus influenzae [16]) of 6.47 mg/kg, an Activity [17] of less than 40% and an Activity [18] of less than 40%. For the same molecule, the remaining at 0.5 h, 4.8 µM [19] was greater than 90%, the Activity [20] was less than 40% and the MIC90 (Providencia sp.) was greater than 16 µg/mL. For the same molecule, the Activity [21] was less than 40%, the MIC90 (Proteus sp.) was greater than 16 µg/mL and the ED50 (Staphylococcus aureus [22]) was 0.68 mg/kg. It also gave an MIC90 (Clostridioides difficile [23]) of 0.06 µg/mL (≈ 0.108 µM), an Activity [24] of less than 40% and an Activity [25] of less than 40%. The MIC90 (Escherichia coli [26]) was less than 4 µg/mL, the MIC90 (Clostridium perfringens) was 0.12 to 4 µg/mL (≈ 0.216 to 7.19 µM) and the MIC90 (Bacteroides fragilis) was 0.12 to 4 µg/mL (≈ 0.216 to 7.19 µM). It also gave an MIC90 (Haemophilus influenzae [27]) of 2 µg/mL (≈ 3.59 µM), an Activity [28] of less than 40% and an Activity [29] of less than 40%. For the same molecule, the MIC90 (Clostridioides difficile [30]) was 0.12 µg/mL (≈ 0.216 µM), the MIC90 (Klebsiella aerogenes) was less than 4 µg/mL and the MIC90 (Pseudomonas aeruginosa) was greater than 16 µg/mL. For the same molecule, the MIC90 [31] was less than 4 µg/mL and the ED50 (Streptococcus pneumoniae [32]) was 1.5 mg/kg.
